Experiments:
[1] = system: ABUTH; experiment: Pre-emergence herbicidal action against ABUTH; type: in vivo, Abutilon theophrasti; conditions: Abutilon theophrasti, 504 h; for pest or weed control at 80 g/ha: scored visually after 3 weeks vs untreated controls (100% = plants have died, 0% = like control plants); for pest or weed control at 20 g/ha: dosage 20 g/ha, scored visually after 3 weeks vs untreated controls, 100% = plants have died, 0% = like control plants, read-out: Pre-emergence action against ABUTH (herbicidal activity in percent)
Procedure, shortened: (§1)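 Visual rating at 3 weeks vs untreated pots; 0–100% scale, 100% = plants died. Treatment: aqueous WP/EC spray onto covering soil, 600–800 l/ha, 0.2% wetter, seeds in sandy loam.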

[2] = system: AMARE; experiment: Pre-emergence herbicidal action against AMARE; type: in vivo, Amaranthus retroflexus; conditions: Amaranthus retroflexus, 504 h, scored visually after 3 weeks vs untreated controls, 100% = plants have died, 0% = like control plants
Procedure, shortened: as §1

[3] = system: ECHCG; experiment: Pre-emergence herbicidal action against ECHCG; type: in vivo, Echinochloa crus-galli; conditions: Echinochloa crus-galli, 504 h
Procedure, shortened: as §1

[4] = system: MATIN; experiment: Pre-emergence herbicidal action against MATIN; type: in vivo, Matricaria inodora; conditions: Tripleurospermum inodorum, 504 h; for pest or weed control at 20 g/ha: dosage 20 g/ha; for pest or weed control at 80 g/ha: dosage 80 g/ha
Procedure, shortened: as §1

[5] = system: PHBPU; experiment: Pre-emergence herbicidal action against PHBPU; type: in vivo, Pharbitis purpurea; conditions: Ipomoea purpurea, 504 h, dosage 80 g/ha
Procedure, shortened: as §1

[6] = system: POLCO; experiment: Pre-emergence herbicidal action against POLCO; type: in vivo, Polygonum convolvulus; conditions: Fallopia convolvulus, 504 h, dosage 80 g/ha
Procedure, shortened: as §1

[7] = system: SETVI; experiment: Pre-emergence herbicidal action against SETVI; type: in vivo, Setaria viridis; conditions: Setaria viridis, 504 h; for pest or weed control at 20 g/ha: dosage 20 g/ha; for pest or weed control at 80 g/ha: dosage 80 g/ha
Procedure, shortened: as §1

[8] = system: VERPE; experiment: Pre-emergence herbicidal action against VERPE; type: in vivo, Veronica persica; conditions: Veronica persica, 504 h, dosage 80 g/ha
Procedure, shortened: as §1

[9] = system: VIOTR; experiment: Pre-emergence herbicidal action against VIOTR; type: in vivo, Viola tricolor; conditions: Viola tricolor, 504 h; for pest or weed control at 20 g/ha: dosage 20 g/ha; for pest or weed control at 80 g/ha: dosage 80 g/ha
Procedure, shortened: as §1

[10] = system: DIGSA; experiment: Pre-emergence herbicidal action against DIGSA; type: in vivo, Digitaria sanguinalis; conditions: Digitaria sanguinalis, 504 h; for pest or weed control at 20 g/ha: dosage 20 g/ha; for pest or weed control at 80 g/ha: dosage 80 g/ha
Procedure, shortened: as §1

[11] = system: ABUTH; experiment: Post-emergence herbicidal action against ABUTH; type: in vivo, Abutilon theophrasti; conditions: Abutilon theophrasti, 504 h, visual assessment about 3 weeks after treatment vs untreated controls; for pest or weed control at 5 g/ha: dosage 5 g/ha; for pest or weed control at 20 g/ha: dosage 20 g/ha
Procedure, shortened: (§2)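 Weeds in sandy loam soil received a post-emergence spray at the one-leaf stage. Compounds were applied as WP or EC in water, 600 to 800 l/ha, with 0.2% wetting agent. Activity in % was judged visually after roughly 3 weeks against untreated plants.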

[12] = system: AMARE; experiment: Post-emergence herbicidal action against AMARE; type: in vivo, Amaranthus retroflexus; conditions: Amaranthus retroflexus, 504 h, 20 g/ha, visual assessment about 3 weeks after treatment, 100% = plants have died, 0% = like control plants
Procedure, shortened: as §2

[13] = system: ECHCG; experiment: Post-emergence herbicidal action against ECHCG; type: in vivo, Echinochloa crus-galli; conditions: Echinochloa crus-galli, 504 h, dosage 20 g/ha
Procedure, shortened: as §2

[14] = system: MATIN; experiment: Post-emergence herbicidal action against MATIN; type: in vivo, Matricaria inodora; conditions: Tripleurospermum inodorum, 504 h; for pest or weed control at 5 g/ha: dosage 5 g/ha; for pest or weed control at 20 g/ha: dosage 20 g/ha
Procedure, shortened: as §2

[15] = system: SETVI; experiment: Post-emergence herbicidal action against SETVI; type: in vivo, Setaria viridis; conditions: Setaria viridis, 504 h; for pest or weed control at 20 g/ha: dosage 20 g/ha
Procedure, shortened: as §2

[16] = system: VERPE; experiment: Post-emergence herbicidal action against VERPE; type: in vivo, Veronica persica; conditions: Veronica persica, 504 h
Procedure, shortened: as §2

[17] = system: VIOTR; experiment: Post-emergence herbicidal action against VIOTR; type: in vivo, Viola tricolor; conditions: Viola tricolor, 504 h
Procedure, shortened: as §2

[18] = system: DIGSA; experiment: Post-emergence herbicidal action against DIGSA; type: in vivo, Digitaria sanguinalis; conditions: Digitaria sanguinalis, 504 h, 20 g/ha
Procedure, shortened: as §2

[19] = system: PHBPU; experiment: Post-emergence herbicidal action against PHBPU; type: in vivo, Pharbitis purpurea; conditions: Ipomoea purpurea, 504 h, dosage 20 g/ha
Procedure, shortened: as §2

| Compound | pest or weed control at 80 g/ha [1] [%] | pest or weed control at 20 g/ha [1] [%] | pest or weed control at 20 g/ha [2] [%] | pest or weed control at 80 g/ha [2] [%] | pest or weed control at 80 g/ha [3] [%] | pest or weed control at 20 g/ha [4] [%] | pest or weed control at 80 g/ha [4] [%] | pest or weed control at 80 g/ha [5] [%] | pest or weed control at 80 g/ha [6] [%] | pest or weed control at 20 g/ha [7] [%] | pest or weed control at 80 g/ha [7] [%] | pest or weed control at 80 g/ha [8] [%] | pest or weed control at 20 g/ha [9] [%] | pest or weed control at 80 g/ha [9] [%] | pest or weed control at 20 g/ha [10] [%] | pest or weed control at 80 g/ha [10] [%] | pest or weed control at 5 g/ha [11] [%] | pest or weed control at 20 g/ha [11] [%] | pest or weed control at 20 g/ha [12] [%] | pest or weed control at 20 g/ha [13] [%] | other results |
| --- | --- | --- | --- | --- | --- | --- | --- | --- | --- | --- | --- | --- | --- | --- | --- | --- | --- | --- | --- | --- | --- |
| CNC(=O)c1c(C(F)F)ccc(C(=O)Nc2nnnn2C)c1C1CC1 [Example 1-304] | 100 | 100 | 100 | 100 | 100 | 90 | 100 | 80 | 80 | 90 | 100 | 100 | 100 | 100 | 100 | 100 | 90 | 90 | 90 | 90 | pest or weed control at 5 g/ha [14]: 90%; pest or weed control at 20 g/ha [14]: 90%; pest or weed control at 5 g/ha ([15]; dosage 5 g/ha): 90%; pest or weed control at 20 g/ha [15]: 90%; pest or weed control at 5 g/ha ([16]; 5 g/ha): 80%; pest or weed control at 20 g/ha [16]: 80%; pest or weed control at 5 g/ha [17]: 80%; pest or weed control at 20 g/ha [17]: 90%; pest or weed control at 20 g/ha [18]: 90% |
| CCNC(=O)c1c(C(F)F)ccc(C(=O)Nc2nnnn2C)c1C1CC1 [Example 1-305] | 100 | 100 | 100 | 100 | 100 | 100 | 100 | 90 | 80 | 80 | 100 | 100 | 100 | 100 | 100 | 100 | 90 | 90 | 90 | 90 | pest or weed control at 20 g/ha ([3]; 20 g/ha): 80%; pest or weed control at 5 g/ha [14]: 90%; pest or weed control at 20 g/ha [14]: 90%; pest or weed control at 20 g/ha [19]: 90%; pest or weed control at 20 g/ha [15]: 90%; pest or weed control at 20 g/ha [16]: 80%; pest or weed control at 5 g/ha [17]: 90%; pest or weed control at 20 g/ha [17]: 90%; pest or weed control at 20 g/ha [18]: 80% |

Source: US12655116B2, “Substituted isophthalic acid diamides” (Bayer Aktiengesellschaft, priority 2020, dated 2026)
